Laboratory results from patent US20240018133A1, “MODULATORS OF THE INTEGRATED STRESS PATHWAY” (Calico Life Sciences LLC, priority 2019, published 2024).

System: ATF4 luciferase reporter (human full-length ATF4 5'-UTR fused to firefly luciferase) in HEK293T cells
Experiment: ATF4-Luc assay (in vitro model of VWMD): HEK293T cells carrying ATF4 luciferase reporter, tunicamycin-treated
Type: cell-based
Conditions: Homo sapiens, HEK-293T, 1 μg/mL tunicamycin, 7 hours, One Glo luminescence
In short: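 Stable HEK293T line with human ATF4 5′-UTR–firefly luciferase reporter treated with 1 μg/mL tunicamycin plus 200 nM compound for 7 h. Luminescence read; EC50 derived.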

Compound | EC50 [nM]
Cc1ccc2oc(C(=O)NC34CC(NC(=O)COc5ccc(Cl)c(F)c5)(C3)C4)cc(=O)c2c1 [Compound 341, N-{3-[2-(4-chloro-3-fluorophenoxy)acetamido]bicyclo[1.1.1]pentan-1-yl}-6-methyl-4-oxo-4H-1-benzopyran-2-carboxamide] | < 10
O=C(COc1ccc(Cl)c(F)c1)NC12CC(NC(=O)[C@@H]3C[C@H](O)c4cc(Cl)ccc4O3)(C1)C2 [Compound 195, (2S,4S)-6-chloro-N-{3-[2-(4-chloro-3-fluorophenoxy)acetamido]bicyclo[1.1.1]pentan-1-yl}-4-hydroxy-3,4-dihydro-2H-1-benzopyran-2-carboxamide] | < 10
CNC1CC(C(=O)NC23CC(NC(=O)COc4ccc(Cl)c(F)c4)(C2)C3)Oc2ccc(Cl)cc21 (centres unmarked) [Compound 314, 6-chloro-N-{3-[2-(4-chloro-3-fluorophenoxy)acetamido]bicyclo[1.1.1]pentan-1-yl}-4-(methylamino)-3,4-dihydro-2H-1-benzopyran-2-carboxamide] | < 10
O=C(COc1ccc(Cl)c(F)c1)NC12CC(NC(=O)[C@H]3C[C@H](O)c4cc(Cl)c(F)cc4O3)(C1)C2 [Compound 367, (2R,4S)-6-chloro-N-{3-[2-(4-chloro-3-fluorophenoxy)acetamido]bicyclo[1.1.1]pentan-1-yl}-7-fluoro-4-hydroxy-3,4-dihydro-2H-1-benzopyran-2-carboxamide] | < 10
O=C(COc1ccc(Cl)c(F)c1)NC12CC(NC(=O)C3CC(=O)c4cc(F)ccc4O3)(C1)C2 (centres unmarked) [Compound 332, N-{3-[2-(4-chloro-3-fluorophenoxy)acetamido]bicyclo[1.1.1]pentan-1-yl}-6-fluoro-4-oxo-3,4-dihydro-2H-1-benzopyran-2-carboxamide] | < 10
O=C(COc1ccc(C(F)(F)F)nc1)NC12CC(NC(=O)[C@H]3C[C@@H](O)c4cc(Cl)ccc4O3)(C1)C2 [Compound 226, (2R,4R)-6-chloro-4-hydroxy-N-[3-(2-{[6-(trifluoromethyl)pyridin-3-yl]oxy}acetamido)bicyclo[1.1.1]pentan-1-yl]-3,4-dihydro-2H-1-benzopyran-2-carboxamide] | < 10
O=C(COc1ccc(Cl)c(F)c1)NC12CC(NC(=O)[C@@H]3C[C@H](O)c4cc(Cl)ccc4O3)(C1)C2 (racemic) [Compound 190, rac-(2R,4R)-6-chloro-N-{3-[2-(4-chloro-3-fluorophenoxy)acetamido]bicyclo[1.1.1]pentan-1-yl}-4-hydroxy-3,4-dihydro-2H-1-benzopyran-2-carboxamide] | < 10
O=C(COc1ccc(F)c(F)c1)NC12CC(NC(=O)[C@@H]3CC(=O)c4cc(Cl)ccc4O3)(C1)C2 [Compound 276, (2S)-6-chloro-N-{3-[2-(3,4-difluorophenoxy)acetamido]bicyclo[1.1.1]pentan-1-yl}-4-oxo-3,4-dihydro-2H-1-benzopyran-2-carboxamide] | 10 to 50
COc1ccc2oc(C(=O)NC34CC(NC(=O)COc5ccc(Cl)c(F)c5)(C3)C4)cc(=O)c2c1 [Compound 287, N-{3-[2-(4-chloro-3-fluorophenoxy)acetamido]bicyclo[1.1.1]pentan-1-yl}-6-methoxy-4-oxo-4H-1-benzopyran-2-carboxamide] | 50 to 250
CN(C(=O)c1cc(=O)c2cc(Cl)ccc2o1)C12CC(NC(=O)COc3ccc(Cl)c(F)c3)(C1)C2 [Compound 324, 6-chloro-N-{3-[2-(4-chloro-3-fluorophenoxy)acetamido]bicyclo[1.1.1]pentan-1-yl}-N-methyl-4-oxo-4H-1-benzopyran-2-carboxamide] | 250 to 500
Cc1cc(Cl)cc2c(=O)cc(C(=O)NC34CC(NC(=O)COc5ccc(Cl)c(F)c5)(C3)C4)oc12 [Compound 282, 6-chloro-N-{3-[2-(4-chloro-3-fluorophenoxy)acetamido]bicyclo[1.1.1]pentan-1-yl}-8-methyl-4-oxo-4H-1-benzopyran-2-carboxamide] | > 2000
O=C(NC12CCC(NC(=O)C3CC(=O)c4cc(Cl)ccc4O3)(C1)C2)c1ccc(OC(F)(F)F)cn1 (centres unmarked) [Compound 311, N-{4-[(6-chloro-4-oxo-3,4-dihydro-2H-1-benzopyran-2-carbonyl)amino]bicyclo[2.1.1]hexan-1-yl}-5-(trifluoromethoxy)pyridine-2-carboxamide] | 50 to 250
O=C(NC12CCC(NC(=O)C3CC(=O)c4cc(Cl)ccc4O3)(CC1)CC2)c1cnc(C(F)F)cn1 (centres unmarked) [Compound 304, N-{4-[(6-chloro-4-oxo-3,4-dihydro-2H-1-benzopyran-2-carbonyl)amino]bicyclo[2.2.2]octan-1-yl}-5-(difluoromethyl)pyrazine-2-carboxamide] | 500 to 2000
CN1CC(C(=O)NC23CC(NC(=O)COc4ccc(Cl)c(F)c4)(C2)C3)Oc2ccc(Cl)cc21 (single isomer, unassigned) [Compound 104] | < 10
O=C(COc1ccc(Cl)c(F)c1)NC12CC(NC(=O)c3cc(=O)c4cc(Cl)cc(Cl)c4o3)(C1)C2 [Compound 289, 6,8-dichloro-N-{3-[2-(4-chloro-3-fluorophenoxy)acetamido]bicyclo[1.1.1]pentan-1-yl}-4-oxo-4H-1-benzopyran-2-carboxamide] | 500 to 2000
O=C(COc1ccc(Cl)c(F)c1)NC12CC(NC(=O)c3cc(=O)c4cc(O)ccc4o3)(C1)C2 [Compound 346, N-{3-[2-(4-chloro-3-fluorophenoxy)acetamido]bicyclo[1.1.1]pentan-1-yl}-6-hydroxy-4-oxo-4H-1-benzopyran-2-carboxamide] | 500 to 2000
Cc1csc(C(=O)NC23CCC(NC(=O)[C@H]4C[C@@H](O)c5cc(Cl)ccc5O4)(CC2)[C@@H](O)C3)n1 [Compound 344, N-[(3S)-4-{[(2R,4R)-6-chloro-4-hydroxy-3,4-dihydro-2H-1-benzopyran-2-carbonyl]amino}-3-hydroxybicyclo[2.2.2]octan-1-yl]-4-methyl-1,3-thiazole-2-carboxamide] | 50 to 250
O=C(COc1ccc(Cl)c(F)c1)NC12CCC(NC(=O)[C@H]3C[C@@H](O)c4cc(Cl)ccc4O3)(CC1)[C@@H](O)C2 (single isomer, unassigned) [Compound 238] | < 10
COc1ncc(OCC(=O)NC23CC(NC(=O)[C@H]4C[C@@H](O)c5cc(Cl)ccc5O4)(C2)C3)cn1 [Compound 227, (2R,4R)-6-chloro-4-hydroxy-N-(3-{2-[(2-methoxypyrimidin-5-yl)oxy]acetamido}bicyclo[1.1.1]pentan-1-yl)-3,4-dihydro-2H-1-benzopyran-2-carboxamide] | 50 to 250
C[C@@]1(C(=O)NC23CC(NC(=O)COc4ccc(Cl)c(F)c4)(C2)C3)Oc2ccc(Cl)cc2C1O (stereo partly drawn) [Compound 263, (2R)-5-chloro-N-{3-[2-(4-chloro-3-fluorophenoxy)acetamido]bicyclo[1.1.1]pentan-1-yl}-3-hydroxy-2-methyl-2,3-dihydro-1-benzofuran-2-carboxamide] | > 2000
COc1ccc2c(=O)cc(C(=O)NC34CC(NC(=O)COc5ccc(Cl)c(F)c5)(C3)C4)oc2c1 [Compound 283, N-{3-[2-(4-chloro-3-fluorophenoxy)acetamido]bicyclo[1.1.1]pentan-1-yl}-7-methoxy-4-oxo-4H-1-benzopyran-2-carboxamide] | 10 to 50
O=C(COc1ccc(Cl)c(F)c1)NC12CC(NC(=O)c3cc(=O)c4ccc5c(c4o3)OCO5)(C1)C2 [Compound 291, N-{3-[2-(4-chloro-3-fluorophenoxy)acetamido]bicyclo[1.1.1]pentan-1-yl}-6-oxo-2H,6H-[1,3]dioxolo[4,5-h][1]benzopyran-8-carboxamide] | 50 to 250
O=C(COc1ccc(Cl)c(F)c1)NC12CC(NC(=O)C3CC(NC4(C(=O)O)CC4)c4cc(Cl)ccc4O3)(C1)C2 (centres unmarked) [Compound 210, 1-{[6-chloro-2-({3-[2-(4-chloro-3-fluorophenoxy)acetamido]bicyclo[1.1.1]pentan-1-yl}carbamoyl)-3,4-dihydro-2H-1-benzopyran-4-yl]amino}cyclopropane-1-carboxylic acid] | 250 to 500
Cc1ccc2c(c1)C(O)CC(C(=O)NC13CC(NC(=O)COc4ccc(Cl)c(F)c4)(C1)C3)O2 (centres unmarked) [Compound 254, N-{3-[2-(4-chloro-3-fluorophenoxy)acetamido]bicyclo[1.1.1]pentan-1-yl}-4-hydroxy-6-methyl-3,4-dihydro-2H-1-benzopyran-2-carboxamide] | < 10
O=C(NC12CC(NC(=O)[C@H]3C[C@@H](O)c4cc(Cl)ccc4O3)(C1)C2)c1cnc(C2CCC2)o1 [Compound 387, N-(3-{[(2R,4R)-6-chloro-4-hydroxy-3,4-dihydro-2H-1-benzopyran-2-carbonyl]amino}bicyclo[1.1.1]pentan-1-yl)-2-cyclobutyl-1,3-oxazole-5-carboxamide] | 50 to 250
O=C(NC12CCC(NC(=O)[C@@H]3C[C@H](O)c4cc(Cl)ccc4O3)(CC1)CC2)c1ccc(OC(F)(F)F)cn1 [Compound 362, N-(4-{[(2S,4S)-6-chloro-4-hydroxy-3,4-dihydro-2H-1-benzopyran-2-carbonyl]amino}bicyclo[2.2.2]octan-1-yl)-5-(trifluoromethoxy)pyridine-2-carboxamide] | 500 to 2000
O=C(NC12CC(NC(=O)[C@H]3C[C@@H](O)c4cc(Cl)ccc4O3)(C1)C2)c1cnn(-c2ccc(C(F)(F)F)nc2)c1 [Compound 392, N-(3-{[(2R,4R)-6-chloro-4-hydroxy-3,4-dihydro-2H-1-benzopyran-2-carbonyl]amino}bicyclo[1.1.1]pentan-1-yl)-1-[6-(trifluoromethyl)pyridin-3-yl]-1H-pyrazole-4-carboxamide] | 500 to 2000
O=C(COc1ccc(Cl)c(F)c1)NC12CC(NC(=O)C3(F)CC(O)c4cc(Cl)ccc4O3)(C1)C2 (centres unmarked) [Compound 350, 6-chloro-N-{3-[2-(4-chloro-3-fluorophenoxy)acetamido]bicyclo[1.1.1]pentan-1-yl}-2-fluoro-4-hydroxy-3,4-dihydro-2H-1-benzopyran-2-carboxamide] | < 10
O=C(COc1ccc(Cl)c(F)c1)NC12CC(NC(=O)C3CC(=O)c4cc(Cl)ccc4O3)(C1)C2 (centres unmarked) [Compound 186, 6-chloro-N-{3-[2-(4-chloro-3-fluorophenoxy)acetamido]bicyclo[1.1.1]pentan-1-yl}-4-oxo-3,4-dihydro-2H-1-benzopyran-2-carboxamide] | < 10
